Experimental findings from US8252798B2, “Purine compounds” (Eli Lilly and Company, priority 2008, dated 2012) are described below.

In assay [1] the test system is male Lewis rats. The assay is described as follows: Monoiodoacetate (MIA) model, incapacitance testing of knee pain. The assay is classed as in vivo. Conditions: rat MIA model. As to the method: For all studies male Lewis rats of approximately 8 weeks of age at the time of MIA injection are used to measure pain in the MIA model. The rats are housed in groups of 2 or 3 per cage and maintained in a constant temperature and on a 12 hour light/12 hour dark cycle. Animals have free access to food and water at all times except during data collection.
In the standard MIA model the right knees of each rat are injected with 0.3 mg MIA in 50 ul of saline and the left knees with 50 ul of saline. Pain is measured at varying times after MIA injection (not normally before 10 day post MIA injection) using incapacitance testing. This measures the difference in hind paw weight bearing between the MIA and saline injected knees, and each measurement is the average of 3 separate measurements each measured over 1 second.
For studies with CB2 agonists rats are randomized into dose groups (n=5 or 6) and then dosed once with the compound under investigation. Dosing is staggered by 15 minutes for each rat and at a predetermined time post-dose (usually 2 hours), pain measured using incapacitance testing. Studies are routinely run with 4 groups, vehicle (1% carboxy methyl cellulose in water plus 0.25% polysorbate 80) and 3 compound groups which can be either single compounds at a single dose or the same compound at 3 doses. […]

Assay [2] has as its target T1, human CB2 receptor (Homo sapiens, UniProt P34972).
T1 construct: expressed in transfected cells
Kind of assay: Displacement of 3H-CP55940 from human CB2 receptors. The assay is classed as binding. Conditions: displacement of 3H-CP55940, human CB2 membrane homogenates. As to the method:
(§1) The methods of Felder et al. (Mol. Pharmaocol. 48:443-450, 1995) were utilized with minor modifications. Specifically, membrane homogenates from cells stably or transiently expressing the human or rat CB2 receptor were washed by centrifugation and diluted into a 50 mM Tris HCl (pH 7.4), 5 mM MgCl2, 2.5 mM EDTA, and 0.1% BSA buffer. Specific binding of 3H-CP55940 was defined with 1 μM CP55940. The ability of compounds to displace specific 3H-CP55940 binding was tested over a range of concentrations in the Tris, MgCl2, EDTA, BSA buffer in the presence of 1% dimethyl sulfoxide by incubating at room temperature for 90 minutes in a volume of 300 μl. Unifilter 96-well microplates pretreated with 0.5% polyvinylpyrrolidone, 0.1% polysorbate 20 in water were washed three times with cold Tris buffer. The reaction mixture was then transferred to the filter plate immediately before terminating the incubation by rapid filtration and three 200 μl washes with cold Tris buffer. After the filter plates dried, microscint 20 was added to each well, the plate sealed and counted for determination of disintegrations per minute. The displacement curves were graphed and the resulting Ki values determined utilizing Graphpad Prism.

Assay [3] concerns the target T2, rat CB2 receptor (Rattus norvegicus, UniProt Q9QZN9).
T2 construct: expressed in transfected cells
T2 sequence (Q9QZN9 1-360): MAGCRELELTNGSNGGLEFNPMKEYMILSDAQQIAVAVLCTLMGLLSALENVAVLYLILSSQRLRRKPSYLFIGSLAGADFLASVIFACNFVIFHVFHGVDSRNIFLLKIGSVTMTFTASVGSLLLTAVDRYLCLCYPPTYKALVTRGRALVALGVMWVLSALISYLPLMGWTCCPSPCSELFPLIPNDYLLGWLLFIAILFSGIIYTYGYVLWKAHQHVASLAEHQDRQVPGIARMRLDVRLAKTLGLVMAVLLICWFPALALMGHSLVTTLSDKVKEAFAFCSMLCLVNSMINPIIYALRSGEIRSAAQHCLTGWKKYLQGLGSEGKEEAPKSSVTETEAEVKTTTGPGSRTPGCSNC
The assay is described as follows: Displacement of 3H-CP55940 from rat CB2 receptors. Conditions: displacement of 3H-CP55940, rat CB2 membrane homogenates. The assay is classed as binding. How it is done:
as §1
On the technique in general: Loss of bound radioactivity is the signal in a displacement assay; it reports binding, not function.

In assay [4] the target is T3, hCB1-CHO membranes (Homo sapiens, UniProt P21554).
T3 construct: expressed in transfected cells; host or cells: CHO
T3 sequence (P21554 whole entry): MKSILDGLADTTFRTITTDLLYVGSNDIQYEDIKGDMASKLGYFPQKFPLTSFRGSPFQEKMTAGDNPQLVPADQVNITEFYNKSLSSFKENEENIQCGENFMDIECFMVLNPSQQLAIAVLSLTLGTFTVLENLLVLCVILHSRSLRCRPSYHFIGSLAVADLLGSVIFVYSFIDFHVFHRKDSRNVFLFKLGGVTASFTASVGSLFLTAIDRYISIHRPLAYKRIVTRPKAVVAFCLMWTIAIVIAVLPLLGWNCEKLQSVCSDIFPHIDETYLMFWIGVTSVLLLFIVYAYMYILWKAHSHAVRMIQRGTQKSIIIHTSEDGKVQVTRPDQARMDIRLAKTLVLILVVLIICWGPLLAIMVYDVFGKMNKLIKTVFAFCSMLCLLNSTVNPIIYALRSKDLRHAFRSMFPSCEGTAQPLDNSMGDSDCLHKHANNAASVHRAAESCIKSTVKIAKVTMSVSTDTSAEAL
The assay is described as follows: CB1 in vitro functional assay, SPA based GTP-γ-35S binding, agonist mode (whole membrane capture). It is filed as biochemical. Conditions: normalized to full agonist methanandamide, read-out: relative EC50 value for CB1. How it is done: (§2) Exemplified compounds are tested in agonist mode using a SPA based GTP-γ-^35S binding assay. All assay components are prepared in assay buffer made up of 20 mM HEPES, 100 mM NaCl, 5 mM MgCl2, (pH 7.4 at room temperature). Semi-log compound dilutions are done in assay buffer containing BSA (final 0.125%). GTP-γ^35-S binding is measured in a 96 well format using a whole membrane capture technique for the CB1 assay and modifications of an antibody capture technique previously described (DeLapp et al. J Pharmacol Exp Ther 289:946-955, 1999) for the CB2 assay. All incubations are done at room temperature.
hCB1-CHO membranes, GDP (1 uM final), and saponin (10 ug/mL final) are added to assay buffer and homogenized. Diluted compounds, GTP-γ-^35S (500 nM final) and membranes are added to the assay plate and incubated for 30 minutes. Then 1 mg/well Wheatgerm Agglutinin SPA bead is added, and the plates are sealed, vortexed, and incubated for an additional hour. Plates are then centrifuged at 700×g for 10 minutes and counted for 1 minute per well using a scintillation counter.
To analyze data, first subtract background from all wells. Determine percent agonist efficacy by normalizing agonist/inverse agonist dose response data to a full agonist (methanandamide) response. Analyze the data using a 4-parameter logistic reduced fit with Activity Base and XLFit3.

Assay [5] has as its target T4, hCB2-Sf9 membranes (Homo sapiens, UniProt P34972).
T4 construct: expressed in transfected cells; host or cells: Sf9
The assay is described as follows: CB2 in vitro functional assay, SPA based GTP-γ-35S binding, agonist mode (antibody capture). Conditions: normalized to full agonist methanandamide, read-out: relative EC50 value for CB2. The assay is classed as biochemical. As to the method:
as §2
hCB2-Sf9 membranes and GDP (1 uM final) are added to assay buffer and homogenized. Diluted compounds and membranes are added to the assay plate and pre-incubated for 15 minutes. This is followed by addition of GTP-γ-^35S (500 nM final) and another 35 minute incubation. Next a mixture containing Nonidet® P40 detergent (0.2% final), anti-Gi antibody (final dilution of 1:362), and 1.25 mg anti-rabbit antibody scintillation proximity assay beads is added. The plates are then sealed, vortexed, and incubated for an additional 2 hours before centrifuging and counting as for CB1.
To analyze data, first subtract background from all wells. Determine percent agonist efficacy by normalizing agonist/inverse agonist dose response data to a full agonist (methanandamide) response. […]
(GTPγS is a poorly hydrolysed GTP analogue; its binding reports G protein activation.)

Where a name gives a salt, the structure may show the parent alone.

T1 sequence (P34972 whole entry): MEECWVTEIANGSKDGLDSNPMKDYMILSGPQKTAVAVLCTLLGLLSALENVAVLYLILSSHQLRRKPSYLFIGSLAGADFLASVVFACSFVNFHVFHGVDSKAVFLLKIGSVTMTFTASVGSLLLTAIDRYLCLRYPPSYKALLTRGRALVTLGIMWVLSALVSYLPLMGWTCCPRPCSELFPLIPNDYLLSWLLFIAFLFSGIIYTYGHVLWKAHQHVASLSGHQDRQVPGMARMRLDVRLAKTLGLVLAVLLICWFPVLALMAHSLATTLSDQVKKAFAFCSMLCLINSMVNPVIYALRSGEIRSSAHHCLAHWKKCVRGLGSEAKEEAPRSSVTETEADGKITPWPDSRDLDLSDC
T4 sequence (P34972 whole entry): as above

With `Cc1nc(N2CCN(C)CC2)c2nc(-c3ccccc3Cl)n([C@@H]3CCOC3)c2n1.Cl` [Example 88, 8-(2-Chloro-phenyl)-2-methyl-6-(4-methyl-piperazin-1-yl)-9-(R)-tetrahydro-furan-3-yl-9H-purine hydrochloride salt], the “pain versus vehicle (difference in hind paw weight bearing)” value in assay [1] (oral dose 0.3 mg/kg) and in assay [1] (oral dose 1 mg/kg) was “significantly reduce pain versus vehicle” throughout.
For orientation: Ki means a measure of affinity in units of concentration, obtained from inhibition or displacement. For `Cc1nc(N2CCN(C)CC2)c2nc(-c3cccnc3C3CC3)n([C@@H]3CCOC3)c2n1` [Example 76, 8-(2-Cyclopropyl-pyridin-3-yl)-2-methyl-6-(4-methyl-piperazin-1-yl)-9-(R)-tetrahydro-furan-3-yl-9H-purine hydrochloride salt], the inhibition constant (Ki) in assay [2] was 33.9 nM; in assay [3], 31.3 nM.
As a reminder, the EC50 is the concentration needed to bring the measured effect to its halfway point. As to `Cc1nc(N2CCN3C(=O)CCC3C2)c2nc(-c3ccccc3Cl)n(CC3CCOCC3)c2n1` (single isomer, unassigned) [Example 61, 2-[8-(2-Chloro-phenyl)-2-methyl-9-(tetrahydro-pyran-4-ylmethyl)-9H-purin-6-yl]-hexahydro-pyrrolo[1,2-a]pyrazin-6-one hydrochloride salt], the EC50 in assay [4] turned out to be 1950 nM; in assay [5] it was 18 nM.
